Calls of active or inactive are those of the source.
Legend:
HeLa = assay: ATP-based viability loss in HeLa cells – cell-based, CellTiter-Glo luminescence, cherry-pick samples, cytotoxicity control for MITF activator project, dose response (AID 540259); assay type: functional; conditions: Homo sapiens
Cytochrome P450 2C9 = Cytochrome P450 2C9 (Homo sapiens, UniProt P11712)
BJ = assay: cells; assay type: functional, cell-based; conditions: Homo sapiens
Cytochrome P450 2C19 = Cytochrome P450 2C19 (Homo sapiens, UniProt P33261); assay: Cytochrome panel assay with activity outcomes. Panel member name: p450-cyp2c19 Compounds with AC50 equal or less than 10 uM are considered active; assay type: functional; conditions: read-out: AC50
[1] = HEK-293T viability loss after treatment – luminescence, T-cell screen hits, cytotoxicity control for TCR NF-kB inhibitor project, dose response (AID 489026); assay type: functional, cell-based;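 also: cells exposed to compound about 14 hours before the viability readout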
Large T antigen = Large T antigen (Simian virus 40, UniProt P03070); assay type: functional, Betapolyomavirus macacae;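 also: Confirmatory-stage PubChem screen for compounds that inhibit SV40 T antigen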
[2] = biological target: T1, Long-chain-fatty-acid--AMP ligase FadD28 (Mycobacterium tuberculosis, UniProt P9WQ59); assay: Fluorescence polarization aasay to screen for inhibitors that compete for the binding of FadD28 to a bisubstrate Measured in Biochemical System Using Plate Reader - 2147-01_Inhibitor_Dose_CherryPick_Activity.; assay type: functional, Mycobacterium tuberculosis H37Rv
T1 sequence (P9WQ59 whole entry): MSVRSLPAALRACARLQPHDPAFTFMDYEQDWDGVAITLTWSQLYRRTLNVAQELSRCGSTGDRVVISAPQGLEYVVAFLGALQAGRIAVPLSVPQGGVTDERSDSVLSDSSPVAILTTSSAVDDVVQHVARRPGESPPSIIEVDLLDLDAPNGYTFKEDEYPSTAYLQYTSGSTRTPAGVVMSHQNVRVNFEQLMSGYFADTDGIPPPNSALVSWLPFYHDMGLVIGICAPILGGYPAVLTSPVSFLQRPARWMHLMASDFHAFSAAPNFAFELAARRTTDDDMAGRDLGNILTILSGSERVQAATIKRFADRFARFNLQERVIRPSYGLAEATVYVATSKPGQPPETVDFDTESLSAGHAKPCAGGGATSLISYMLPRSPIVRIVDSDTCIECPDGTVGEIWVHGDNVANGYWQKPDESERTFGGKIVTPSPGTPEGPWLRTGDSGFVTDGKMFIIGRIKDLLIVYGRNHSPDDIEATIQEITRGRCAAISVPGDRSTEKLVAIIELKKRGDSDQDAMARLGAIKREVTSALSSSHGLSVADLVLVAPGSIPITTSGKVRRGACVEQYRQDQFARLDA

[3] = biological target: Induced myeloid leukemia cell differentiation protein Mcl-1 (Homo sapiens, UniProt Q07820); assay type: functional
Sequence of Induced myeloid leukemia cell differentiation protein Mcl-1 (Q07820 whole entry): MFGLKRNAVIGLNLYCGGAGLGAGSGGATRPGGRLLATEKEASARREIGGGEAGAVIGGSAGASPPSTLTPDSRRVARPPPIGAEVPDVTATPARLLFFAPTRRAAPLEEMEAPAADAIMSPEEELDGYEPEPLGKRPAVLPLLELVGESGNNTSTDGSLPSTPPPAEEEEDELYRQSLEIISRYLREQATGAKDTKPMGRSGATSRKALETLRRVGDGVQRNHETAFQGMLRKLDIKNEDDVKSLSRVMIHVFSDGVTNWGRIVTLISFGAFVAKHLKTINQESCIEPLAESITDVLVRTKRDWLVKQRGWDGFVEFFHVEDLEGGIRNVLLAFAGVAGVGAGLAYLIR

Aminopeptidase N = biological target: T2, Aminopeptidase N (Plasmodium falciparum FcB1/Columbia, UniProt O96935); assay: malaria alanyl aminopeptidase activity blockers – biochemical, fluorogenic H-Leu-NHMec substrate, 1536-well (AID 1445); set-up: species or system Plasmodium falciparum 3D7, 3D7
T2 sequence (O96935 whole entry): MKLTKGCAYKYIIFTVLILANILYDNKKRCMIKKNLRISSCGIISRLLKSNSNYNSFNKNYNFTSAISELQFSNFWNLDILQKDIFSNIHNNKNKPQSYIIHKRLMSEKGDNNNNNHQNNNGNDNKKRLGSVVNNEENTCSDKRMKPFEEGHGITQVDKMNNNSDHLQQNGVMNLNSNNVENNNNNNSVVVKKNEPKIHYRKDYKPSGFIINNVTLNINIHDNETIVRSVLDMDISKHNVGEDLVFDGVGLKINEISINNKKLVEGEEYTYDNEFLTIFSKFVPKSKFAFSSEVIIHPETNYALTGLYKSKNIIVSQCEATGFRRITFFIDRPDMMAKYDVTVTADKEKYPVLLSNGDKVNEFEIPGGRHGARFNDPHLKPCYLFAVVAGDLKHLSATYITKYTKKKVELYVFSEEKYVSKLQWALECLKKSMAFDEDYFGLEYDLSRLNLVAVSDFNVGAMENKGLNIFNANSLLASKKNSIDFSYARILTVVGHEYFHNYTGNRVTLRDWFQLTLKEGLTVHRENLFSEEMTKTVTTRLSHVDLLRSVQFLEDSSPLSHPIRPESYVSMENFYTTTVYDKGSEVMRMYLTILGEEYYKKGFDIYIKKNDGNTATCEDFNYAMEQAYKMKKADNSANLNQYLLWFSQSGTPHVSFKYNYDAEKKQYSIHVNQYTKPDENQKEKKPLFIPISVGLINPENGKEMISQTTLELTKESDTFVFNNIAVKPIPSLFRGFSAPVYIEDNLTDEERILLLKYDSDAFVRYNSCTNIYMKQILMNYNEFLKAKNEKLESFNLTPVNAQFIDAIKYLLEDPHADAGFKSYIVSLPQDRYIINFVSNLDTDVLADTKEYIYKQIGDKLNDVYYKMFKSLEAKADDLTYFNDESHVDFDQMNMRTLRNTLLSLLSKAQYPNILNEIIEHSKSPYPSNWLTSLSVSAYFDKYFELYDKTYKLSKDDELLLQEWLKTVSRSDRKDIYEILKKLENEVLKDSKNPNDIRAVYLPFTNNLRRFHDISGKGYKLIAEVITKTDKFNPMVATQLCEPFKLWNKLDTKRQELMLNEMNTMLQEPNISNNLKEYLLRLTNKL

[4] = biological target: DNA dC->dU-editing enzyme APOBEC-3A (Homo sapiens, UniProt P31941); assay: Dose Response confirmation of small molecule APOBEC3A DNA Deaminase Inhibitors via a fluorescence-based single-stranded DNA deaminase assay. [Related pubchem assays (depositor defined):AID493011, AID493024]; assay type: functional
Sequence of DNA dC->dU-editing enzyme APOBEC-3A (P31941 whole entry): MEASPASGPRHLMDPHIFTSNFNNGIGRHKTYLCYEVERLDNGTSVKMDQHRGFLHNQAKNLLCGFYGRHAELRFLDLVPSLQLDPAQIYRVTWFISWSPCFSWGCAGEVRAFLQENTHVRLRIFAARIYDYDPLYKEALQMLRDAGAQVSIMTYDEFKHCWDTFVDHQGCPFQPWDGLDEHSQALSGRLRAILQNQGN

[5] = biological target: DNA dC->dU-editing enzyme APOBEC-3G (Homo sapiens, UniProt Q9HC16); assay type: functional;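 also: Dose-response counterscreen measuring inhibition of APOBEC3G DNA deaminase activity, run while confirming APOBEC3A inhibitors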
Sequence of DNA dC->dU-editing enzyme APOBEC-3G (Q9HC16 whole entry, the tested form may be a part): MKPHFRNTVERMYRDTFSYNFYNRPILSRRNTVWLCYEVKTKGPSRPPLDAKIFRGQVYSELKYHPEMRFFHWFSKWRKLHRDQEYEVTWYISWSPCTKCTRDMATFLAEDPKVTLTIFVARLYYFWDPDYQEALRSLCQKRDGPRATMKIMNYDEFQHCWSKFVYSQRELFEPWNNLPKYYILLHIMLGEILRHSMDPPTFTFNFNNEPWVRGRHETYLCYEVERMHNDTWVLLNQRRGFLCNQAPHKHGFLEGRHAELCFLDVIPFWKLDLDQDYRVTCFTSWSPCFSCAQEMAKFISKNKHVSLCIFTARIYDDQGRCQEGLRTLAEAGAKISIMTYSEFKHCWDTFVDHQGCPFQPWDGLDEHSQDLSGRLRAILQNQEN

[6] = biological target: T3, Carboxy-terminal domain RNA polymerase II polypeptide A small phosphatase 1 (Homo sapiens, UniProt Q9GZU7); assay: CTDSP1 inhibitors, concentration-response, biochemical, absorbance readout, ultra-high-throughput screen actives (AID 540297); assay type: functional
T3 sequence (Q9GZU7 whole entry): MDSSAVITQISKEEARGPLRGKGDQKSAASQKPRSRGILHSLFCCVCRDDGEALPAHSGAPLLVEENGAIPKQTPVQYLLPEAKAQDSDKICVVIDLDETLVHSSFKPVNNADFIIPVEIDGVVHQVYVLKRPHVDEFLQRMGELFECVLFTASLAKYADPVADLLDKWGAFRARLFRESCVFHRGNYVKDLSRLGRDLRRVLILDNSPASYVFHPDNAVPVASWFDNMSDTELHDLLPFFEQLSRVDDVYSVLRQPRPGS

[7] = NIH3T3 cell viability loss – ATP luminescence, mouse fibroblasts, counter-screen, dose response (AID 2010); assay type: functional, cell-based;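 also: cells exposed to compound for about 90 hours before reading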
[8] = Trypanosoma cruzi growth suppression in host cells – NIH3T3 host cells, beta-gal luminescence, confirmation (AID 2044); assay type: functional, cell-based;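 also: intracellular parasites grown in NIH/3T3 mouse fibroblasts as host cells; luminescent beta-galactosidase reporter signal from transgenic T. cruzi replicating inside host cells; inhibitors lower the luminescence signal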
Cytochrome P450 1A2 = biological target: T4, Cytochrome P450 1A2 (Homo sapiens, UniProt P05177);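 also: PubChem cytochrome P450 panel assay, CYP1A2 panel member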
T4 sequence (P05177 whole entry): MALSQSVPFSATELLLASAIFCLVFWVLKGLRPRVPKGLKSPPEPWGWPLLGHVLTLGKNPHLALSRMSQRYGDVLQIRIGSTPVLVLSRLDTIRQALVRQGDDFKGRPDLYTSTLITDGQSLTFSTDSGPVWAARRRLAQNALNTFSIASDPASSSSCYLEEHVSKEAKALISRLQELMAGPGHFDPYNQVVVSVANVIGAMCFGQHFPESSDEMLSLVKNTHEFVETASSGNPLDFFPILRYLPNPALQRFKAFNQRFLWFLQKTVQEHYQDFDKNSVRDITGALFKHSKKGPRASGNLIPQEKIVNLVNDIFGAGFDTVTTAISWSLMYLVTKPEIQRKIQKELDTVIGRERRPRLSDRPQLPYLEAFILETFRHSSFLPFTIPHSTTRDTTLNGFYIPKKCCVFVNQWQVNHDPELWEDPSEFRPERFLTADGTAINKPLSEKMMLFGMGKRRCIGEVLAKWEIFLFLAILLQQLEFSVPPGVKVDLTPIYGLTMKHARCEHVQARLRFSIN

Cytochrome P450 3A4 = Cytochrome P450 3A4 (Homo sapiens, UniProt P08684);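 also: CYP3A4 tested as one member of a cytochrome P450 panel screen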
Sequence of Cytochrome P450 3A4 (P08684 whole entry): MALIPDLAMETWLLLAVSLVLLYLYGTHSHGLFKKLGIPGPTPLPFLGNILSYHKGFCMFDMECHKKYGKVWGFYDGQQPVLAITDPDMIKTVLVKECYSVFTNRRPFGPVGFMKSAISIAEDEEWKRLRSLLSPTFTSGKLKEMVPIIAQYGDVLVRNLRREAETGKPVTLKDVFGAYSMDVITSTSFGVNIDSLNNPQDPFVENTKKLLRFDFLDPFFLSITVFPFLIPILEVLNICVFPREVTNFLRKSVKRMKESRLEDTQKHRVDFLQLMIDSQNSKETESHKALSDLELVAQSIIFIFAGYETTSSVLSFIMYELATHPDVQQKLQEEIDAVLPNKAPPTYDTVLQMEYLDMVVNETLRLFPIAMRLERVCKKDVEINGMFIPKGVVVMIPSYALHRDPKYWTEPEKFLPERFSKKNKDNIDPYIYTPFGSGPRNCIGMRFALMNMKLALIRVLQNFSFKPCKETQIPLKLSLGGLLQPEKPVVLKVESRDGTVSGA

Nonstructural protein 1 = Nonstructural protein 1 (Influenza A virus, UniProt Q194T2); assay type: functional, Influenza A virus (A/California/07/2009(H1N1))
Sequence of Nonstructural protein 1 (Q194T2 whole entry): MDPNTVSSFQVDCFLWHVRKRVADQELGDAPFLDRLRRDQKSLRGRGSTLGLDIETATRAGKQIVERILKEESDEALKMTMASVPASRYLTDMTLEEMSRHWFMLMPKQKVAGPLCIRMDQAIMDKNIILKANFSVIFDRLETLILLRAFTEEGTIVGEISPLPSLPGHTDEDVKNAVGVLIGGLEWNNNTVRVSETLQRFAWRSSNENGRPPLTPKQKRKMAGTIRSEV

cells [9] = assay type: functional, cell-based
[10] = biological target: T5, Microphthalmia-associated transcription factor (Homo sapiens, UniProt O75030); assay: reducers of TRPM1 reporter luminescence, concentration series – cell-based, SK-MEL-5, cherry-picked, set 3, MITF inhibitor project, dose response (AID 493073); assay type: functional;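 also: SK-MEL-5 melanoma cells with luciferase driven by the MITF target TRPM1 promoter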
T5 sequence (O75030 whole entry): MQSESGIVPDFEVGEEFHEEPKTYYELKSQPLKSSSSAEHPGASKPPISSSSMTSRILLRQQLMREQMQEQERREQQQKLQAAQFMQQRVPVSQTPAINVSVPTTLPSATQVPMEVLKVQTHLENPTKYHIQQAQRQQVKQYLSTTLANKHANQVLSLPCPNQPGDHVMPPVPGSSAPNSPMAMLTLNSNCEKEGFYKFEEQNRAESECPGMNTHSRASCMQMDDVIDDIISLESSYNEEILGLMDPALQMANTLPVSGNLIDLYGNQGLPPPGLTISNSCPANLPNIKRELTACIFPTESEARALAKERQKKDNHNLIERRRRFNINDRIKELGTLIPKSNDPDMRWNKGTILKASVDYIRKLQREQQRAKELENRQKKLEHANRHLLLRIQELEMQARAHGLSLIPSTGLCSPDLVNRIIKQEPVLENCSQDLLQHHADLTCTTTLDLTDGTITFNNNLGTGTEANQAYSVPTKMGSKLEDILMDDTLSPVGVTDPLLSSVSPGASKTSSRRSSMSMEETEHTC

cells [11] = assay type: functional, cell-based; remark: listed apart in the source
Streptococcus = assay: GAS UMAA2166 growth inhibition – luminescence, BacTiterGlo, counter-screen for streptokinase expression inhibitor project, dose response (AID 1915); assay type: functional, organism-based;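 also: potency for reduction of bacterial viability or growth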
[12] = tested on: Streptococcus sp. 'group A'; assay: Streptococcus pyogenes SK(-)GAS viability under kanamycin – luminescence, BacTiterGlo, confirmation, counter-screen for streptokinase expression inhibitor project, dose response (AID 1900); assay type: functional, organism-based
[13] = viability loss in THP-1 monocytes – THP-1 cells, cytotoxicity control for Vif-APOBEC3G degradation inhibitor project, dose response (AID 1117359); assay type: functional; conditions: THP-1
[14] = microbe, parasite or virus in culture; assay type: functional; conditions: Mycobacterium tuberculosis
Fatty acid synthase [15] = biological target: T6, Fatty acid synthase (Homo sapiens, UniProt P49327); assay: inhibition of human FAS-TE enzyme activity – biochemical, kinetic fluorescence intensity, dose response (AID 624326); assay type: functional;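 also: rate of fluorescence rise from hydrolysis of a fluorogenic O-methyl fluorescein ester substrate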
T6 sequence (P49327 whole entry): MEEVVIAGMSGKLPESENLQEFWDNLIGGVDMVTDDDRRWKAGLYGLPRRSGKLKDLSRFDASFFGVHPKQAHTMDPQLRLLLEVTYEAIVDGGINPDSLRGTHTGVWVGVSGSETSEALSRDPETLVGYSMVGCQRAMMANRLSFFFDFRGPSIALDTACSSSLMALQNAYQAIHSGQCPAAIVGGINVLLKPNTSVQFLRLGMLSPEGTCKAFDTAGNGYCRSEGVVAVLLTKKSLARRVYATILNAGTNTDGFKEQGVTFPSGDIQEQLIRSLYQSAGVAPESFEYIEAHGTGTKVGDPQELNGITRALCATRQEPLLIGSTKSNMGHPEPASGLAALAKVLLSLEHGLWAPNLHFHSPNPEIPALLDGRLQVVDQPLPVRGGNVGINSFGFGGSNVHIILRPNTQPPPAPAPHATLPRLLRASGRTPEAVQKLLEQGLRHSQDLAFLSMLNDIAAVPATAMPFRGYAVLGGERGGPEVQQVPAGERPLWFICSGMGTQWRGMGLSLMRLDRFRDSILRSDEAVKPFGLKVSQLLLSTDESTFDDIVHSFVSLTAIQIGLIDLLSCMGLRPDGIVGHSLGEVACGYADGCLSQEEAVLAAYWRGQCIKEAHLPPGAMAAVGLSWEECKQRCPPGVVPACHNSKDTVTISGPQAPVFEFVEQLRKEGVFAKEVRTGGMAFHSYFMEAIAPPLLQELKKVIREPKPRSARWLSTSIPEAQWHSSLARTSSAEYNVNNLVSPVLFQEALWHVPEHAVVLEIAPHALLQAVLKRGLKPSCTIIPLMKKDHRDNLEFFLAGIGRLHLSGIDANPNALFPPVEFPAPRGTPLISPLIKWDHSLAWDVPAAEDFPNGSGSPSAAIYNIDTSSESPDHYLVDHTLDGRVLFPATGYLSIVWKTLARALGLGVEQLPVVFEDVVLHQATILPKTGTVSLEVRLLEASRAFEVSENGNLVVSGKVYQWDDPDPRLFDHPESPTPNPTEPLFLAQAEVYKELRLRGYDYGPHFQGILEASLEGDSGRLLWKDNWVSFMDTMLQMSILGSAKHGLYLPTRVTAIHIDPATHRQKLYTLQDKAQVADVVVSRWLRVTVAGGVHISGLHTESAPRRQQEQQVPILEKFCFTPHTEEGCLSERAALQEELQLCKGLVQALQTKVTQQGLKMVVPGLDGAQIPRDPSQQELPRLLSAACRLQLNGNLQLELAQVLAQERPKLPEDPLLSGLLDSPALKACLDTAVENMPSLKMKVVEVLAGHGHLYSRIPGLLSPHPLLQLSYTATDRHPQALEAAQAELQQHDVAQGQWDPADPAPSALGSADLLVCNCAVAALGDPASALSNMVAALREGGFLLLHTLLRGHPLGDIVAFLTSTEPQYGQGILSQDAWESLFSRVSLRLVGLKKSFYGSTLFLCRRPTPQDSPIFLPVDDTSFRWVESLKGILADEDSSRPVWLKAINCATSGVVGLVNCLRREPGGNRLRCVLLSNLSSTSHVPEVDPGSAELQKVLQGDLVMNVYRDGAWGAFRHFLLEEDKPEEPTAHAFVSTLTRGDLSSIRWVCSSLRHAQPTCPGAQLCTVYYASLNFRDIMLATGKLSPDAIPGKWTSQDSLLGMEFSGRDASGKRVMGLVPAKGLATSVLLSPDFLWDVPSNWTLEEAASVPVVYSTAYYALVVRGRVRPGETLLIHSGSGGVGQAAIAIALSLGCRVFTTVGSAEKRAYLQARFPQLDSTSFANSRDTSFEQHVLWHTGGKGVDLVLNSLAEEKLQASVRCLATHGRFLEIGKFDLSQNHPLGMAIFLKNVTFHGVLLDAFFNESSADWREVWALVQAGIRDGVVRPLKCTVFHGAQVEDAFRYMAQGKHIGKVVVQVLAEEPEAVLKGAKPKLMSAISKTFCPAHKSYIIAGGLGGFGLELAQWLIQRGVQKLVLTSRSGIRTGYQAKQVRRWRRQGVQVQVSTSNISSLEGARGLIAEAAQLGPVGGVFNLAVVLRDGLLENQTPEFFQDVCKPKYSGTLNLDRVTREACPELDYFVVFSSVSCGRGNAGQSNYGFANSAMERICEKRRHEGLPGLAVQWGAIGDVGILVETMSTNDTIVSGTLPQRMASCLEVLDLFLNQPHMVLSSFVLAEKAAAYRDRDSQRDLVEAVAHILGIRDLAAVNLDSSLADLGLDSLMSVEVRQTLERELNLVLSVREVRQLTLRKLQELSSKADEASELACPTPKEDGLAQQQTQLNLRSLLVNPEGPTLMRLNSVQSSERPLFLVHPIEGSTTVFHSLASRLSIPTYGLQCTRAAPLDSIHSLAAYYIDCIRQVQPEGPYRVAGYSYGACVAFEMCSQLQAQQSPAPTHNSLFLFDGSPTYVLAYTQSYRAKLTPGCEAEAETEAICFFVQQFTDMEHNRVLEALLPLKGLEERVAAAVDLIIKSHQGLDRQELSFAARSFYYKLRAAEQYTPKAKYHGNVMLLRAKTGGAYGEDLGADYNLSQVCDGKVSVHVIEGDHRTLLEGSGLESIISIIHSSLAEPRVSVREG

Fatty acid synthase [16] = biological target: T6, Fatty acid synthase; assay: inhibition of human FAS-TE enzyme activity – biochemical, endpoint fluorescence intensity, uHTS hits, dose response (AID 624327); assay type: functional;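 also: fluorescence from hydrolysis of an O-methyl fluorescein acyl ester substrate by the enzyme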

Sequence of Cytochrome P450 2C9 (P11712 whole entry): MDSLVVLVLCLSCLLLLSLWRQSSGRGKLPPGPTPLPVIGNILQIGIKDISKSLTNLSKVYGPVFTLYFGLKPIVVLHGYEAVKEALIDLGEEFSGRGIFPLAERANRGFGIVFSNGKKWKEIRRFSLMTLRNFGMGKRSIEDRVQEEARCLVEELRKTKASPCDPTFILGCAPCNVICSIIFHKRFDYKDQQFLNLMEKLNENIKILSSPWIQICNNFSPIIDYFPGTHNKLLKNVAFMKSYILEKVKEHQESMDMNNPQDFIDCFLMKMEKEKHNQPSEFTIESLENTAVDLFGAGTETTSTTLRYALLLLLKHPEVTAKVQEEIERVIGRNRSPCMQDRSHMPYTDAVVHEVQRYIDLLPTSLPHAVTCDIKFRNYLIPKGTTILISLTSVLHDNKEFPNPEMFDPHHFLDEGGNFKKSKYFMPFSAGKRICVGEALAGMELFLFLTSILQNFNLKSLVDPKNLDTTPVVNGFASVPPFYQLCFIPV

With Cc1ccccc1S(=O)(=O)Oc1ccc2ccc(O)cc2c1 the AC50 (HeLa) was 49.4 µM (active).
With Cc1ccc(Nc2nc(-c3c(C)nc4ncccn34)cs2)cc1 the AC50 (Cytochrome P450 2C9) was “inconclusive”, the EC50 (BJ) was 60.6 µM (active) and the AC50 (Cytochrome P450 2C19) was 31.6 nM (inconclusive). For the same compound, the IC50 [1] was 36.5 µM (inactive).
In the case of O=C1NN(c2ccccc2)C(=O)/C1=C\c1ccc(-c2cc([N+](=O)[O-])ccc2O)o1, the IC50 (Large T antigen) is reported as 20.7 µM (active), the AC50 [2] is reported as 8.08 µM (active) and the IC50 [3] is reported as 10.7 µM (active).
In the case of Cc1cccc(NC(=O)N(Cc2cc3cc(C)ccc3[nH]c2=O)CC2COCCO2)c1 (configuration not stated), the IC50 (Aminopeptidase N) is reported as 45.9 µM (active).
For Clc1ccc(-c2ccc(SCc3ccccn3)nn2)cc1, the AC50 (HeLa) was 50.7 µM (active).
With Cc1ccc(NC(=O)C(C)N2C(=O)c3ccccc3C2=O)cc1S(=O)(=O)N1CCOCC1 (configuration not stated) the IC50 (Aminopeptidase N) was 115 µM (active).
In the case of Cc1ccc2oc(Nc3nc(C)c(C)c(C)n3)nc2c1, the AC50 (HeLa) is reported as 192 µM (active).
In the case of CC(C)CNC(=O)CCCc1c[nH]c2ccccc12.O=C(O)C(=O)O, the AC50 (Cytochrome P450 2C9) is reported as “inconclusive”.
With CSc1nnc(-c2ccncc2)n1CCCN1CCCC1=O the IC50 [4] was 2.76 µM (active) and the IC50 [5] was 3.35 µM (active).
For C[n+]1ccc(C(=O)Nc2ccccc2Cl)cc1, the IC50 [4] was 2.01 µM (active), the IC50 [5] was 1.72 µM (active) and the IC50 [6] was 7.68 µM (active).
For O=C(Nc1ncc(Cc2cc(Cl)ccc2Cl)s1)c1ccc([N+](=O)[O-])cc1, the EC50 [7] was > 30 µM (not active), the AC50 (Cytochrome P450 2C9) was “inconclusive” and the EC50 [8] was 1.31 µM (active). For the same compound, the AC50 (Cytochrome P450 1A2) was 5.62 µM (inconclusive).
For CS(=O)(=O)N1CCc2cc(C(=O)Nc3ccccc3Br)ccc21, the AC50 (HeLa) was > 350 µM (inactive).
For CCN(N=O)c1ccc(C=C2C=Cc3ccccc32)cc1, the AC50 (HeLa) was 68.9 µM (active).
In the case of Cc1ccc(S(=O)(=O)N2CCC(C(=O)NCCCOC(C)C)CC2)cc1, the AC50 (Cytochrome P450 3A4) is reported as 25.1 µM (inconclusive) and the AC50 (Cytochrome P450 2C9) is reported as “inconclusive”.
In the case of CN1CCN(S(=O)(=O)c2cccc(C(=O)N(C)CC(=O)Nc3ccc(F)c(F)c3F)c2)CC1, the IC50 [4] is reported as 3.94 µM (active) and the IC50 [5] is reported as 5.4 µM (active).
With O=C(N/N=C/c1cc(Br)ccc1O)c1ccncc1 the IC50 (Nonstructural protein 1) was 5.51 µM (active), the EC50 (cells [9]) was > 350 µM (not active) and the AC50 [10] was 9.36 µM (active). The EC50 (cells [11]) was 17.7 µM (active), the IC50 (Aminopeptidase N) was 7.95 µM (active) and the EC50 (Streptococcus) was 3.78 µM (active). For the same compound, the EC50 [12] was 3 µM (active).
With C=CCOc1ccc2c(c1)C(=NO)c1cc(OCC=C)ccc1-2 the CC50 [13] was > 40 µM (active) and the CC50 [14] was > 40 µM (active).
In the case of C=CCOc1c(Br)cc(/C=N/Nc2ccc(C(=O)O)cc2)cc1OCC, the IC50 (Fatty acid synthase [15]) is reported as 10.5 µM (active), the IC50 (Fatty acid synthase [16]) is reported as 12.6 µM (active) and the AC50 [2] is reported as 62.7 µM (active).
For O=C(N/N=C/C1CCCCC1)c1ccccn1, the AC50 (Cytochrome P450 2C9) was “inconclusive” and the AC50 (Cytochrome P450 1A2) was 17.8 µM (inconclusive).

— ChEMBL document CHEMBL1201862, “PubChem BioAssay data set” (2004)
